In data set [1] the target is T1, GPX1 (Homo sapiens, UniProt P07203).
T1 sequence (P07203 1-203): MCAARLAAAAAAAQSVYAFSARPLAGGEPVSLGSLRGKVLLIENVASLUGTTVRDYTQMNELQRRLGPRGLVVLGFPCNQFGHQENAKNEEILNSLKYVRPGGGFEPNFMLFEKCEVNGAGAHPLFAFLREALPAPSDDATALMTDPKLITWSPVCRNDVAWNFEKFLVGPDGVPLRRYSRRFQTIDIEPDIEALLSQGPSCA
Kind of data set: GPX1 activity assay in cell lysates. The data set is classed as biochemical. Set-up: endogenous in cells; host or cells: A-673 cell lysate. The procedure:
Determination of GPX1 activity in cell lysates was performed as previously described by Stolwijk et al. with some modifications (Stolwijk et al. 2020). GPX1 and GPX4 activity were not evaluated simultaneously in the same assay as in the published protocol to maximize signal-to-noise with the GPX1 substrate. Again, NADPH consumption, as determined by the reduction in the absorbance at 340 nm, over time was monitored as a proxy for GPX1 activity, which, like GPX4, reduces its substrates using glutathione as a reductant. 100 μM hydrogen peroxide was selected as the GPX1 substrate in this assay. A-673 cell lysates and assay setup were performed as above for the GPX4 activity assay. All conditions were tested in triplicate. Buffer-only controls and controls without substrate containing only Milli-Q water vehicle were performed to assess background and baseline signal. GPX1 activity was calculated as reported by Stolwijk et al. 2020 and results were analyzed in GraphPad Prism 9.

In the next data set the test system is PC9 cells. Kind of data set: cells. Conditions: Homo sapiens, PC-9, 48 h, read-out: % Viability PC9.
For another data set, the target named is T2, GPX4 (Homo sapiens, UniProt P36969).
T2 sequence (P36969 1-170 isoform P36969-2): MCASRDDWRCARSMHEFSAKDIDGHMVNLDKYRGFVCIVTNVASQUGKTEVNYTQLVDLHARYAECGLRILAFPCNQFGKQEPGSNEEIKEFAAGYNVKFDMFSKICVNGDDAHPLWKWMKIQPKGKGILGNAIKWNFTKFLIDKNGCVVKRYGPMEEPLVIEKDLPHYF
The experiment in a line: Cellular thermal shift assay (CETSA), GPX4. The data set is classed as cell-based. Details: To prepare the cell lysate containing native GPX4, A-673 cells were cultured; endogenous in cells; host or cells: A-673 cell lysate. Conditions: 10 μM compound for 1 h.

The target in the next data set is T3, GPX4^U46C (Homo sapiens, UniProt P36969, U73C).
T3 construct: made in house; host or cells: E. coli BL21-Gold (DE3)
T3 sequence (P36969 1-170 isoform P36969-2 U46C): T2 sequence (P36969 1-170 isoform P36969-2) with U46C
The experiment in a line: Intact protein MALDI MS analysis. Particulars: 150 μM. The data set is classed as binding.

The next data set addresses T4, GFP-GPX4^K125R_K127R (Homo sapiens, UniProt P36969, K152R/K154R).
T4 construct: expressed in transfected cells
The experiment in a line: Degradation of GFP-GPX4^K125R_K127R in HT-1080 cells. The data set is classed as cell-based.

The target in data set [2] is T1, GPX1. The experiment in a line: Degradation of endogenous GPX1 in HT-1080 cells. The data set is classed as cell-based. Set-up: endogenous in cells.
The target of a further data set is T5, GFP-GPX4^WT (Homo sapiens, UniProt P36969).
T5 construct: expressed in transfected cells; host or cells: HT-1080 overexpressing GFP-GPX4^WT
The experiment in a line: Degradation of GPX4 and GFP-GPX4^WT with MG-132. The data set is classed as cell-based. Particulars: 1.0 μM ± MG-132 (10 μM), 18 hours.

Positions count from the first letter of the chain named.

T4 sequence (P36969 28-197 K152R/K154R): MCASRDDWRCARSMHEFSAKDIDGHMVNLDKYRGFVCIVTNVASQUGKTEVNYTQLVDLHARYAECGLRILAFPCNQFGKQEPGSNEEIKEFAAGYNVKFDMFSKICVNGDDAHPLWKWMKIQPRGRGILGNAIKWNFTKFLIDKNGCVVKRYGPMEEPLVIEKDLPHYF

As usually defined, the viability is the share of living cells, or the viability signal relative to a control. With `Cn1nc(C(=O)NC(C)(C)COC(=O)CCl)c2ccc(Br)cc21` [QW-314], on GPX1 [1], the “GPX1 activity assay effect” value is reported as “no inhibitory effect” and the “selectivity for GPX4 over GPX1, result in words” value was “high selectivity for GPX4 over GPX1”. In the data set on PC9 cells, the viability at 10 µM was found to be 62%.

As for `CC(C)(COC(=O)CCl)NC(=O)c1nn(Cc2cc(Cl)cc(Cl)c2)c2cc(-c3ccc(N4CCOCC4)c(Cl)c3)ccc12` [QW-852], in the data set with PBMCs, the “selectivity in cancer cells compared to PBMCs” value was “Over 10 fold”. Moreover, at GPX4, the “thermal stability of GPX4” value is on record as “stabilizing the protein”. Also, at GPX4^U46C, the “covalent binding to GPX4^U46C (mass shift)” value is listed as “lower potency than RSL3 to covalently bind to GPX4^U46C”. In addition, the “degradation of GFP-GPX4^K125R_K127R” value on GFP-GPX4^K125R_K127R was “but not by QW-852”. Further, the GPX1 degradation entry at GPX1 [2] is recorded as “less effective at degrading GPX1”. Also, the “GPX4 degradation with MG-132” value at GFP-GPX4^WT is reported as “effectively blocked by MG-132”.

For the compound `CC(C)(COC(=O)CCl)NC(=O)c1cc2ccc(Br)cc2[nH]1` [QW-156], at GPX1 [1] (200 μM), the GPX1 inhibition entry is on record as “approximately 30%”.
